Experiments:
Nrf2 pathway = details: ref [34]; cited from earlier work
Description: PANa triggers the buildup of reactive oxygen species (ROS) within cells, resulting in oxidative stress and subsequent cellular injury. Antioxidant enzymes are essential for alleviating oxidative stress.

FASN and ACC1 = details: ref [39]; cited from earlier work
Description: Lipid metabolism, including lipolysis, lipogenesis, and lipid transport, determines the lipid levels in the body. FASN and ACC are two significant lipid synthetases that play a key role in lipid accumulation. PANa primarily influences hepatic lipogenesis through the modulation of FASN and ACC1 expression. […] CPT1 and ATGL are closely linked to lipolysis and are crucial for regulating lipid levels. ...

HepG2 cells [1] = test: CCK-8 proliferation of HepG2 with peptide alone; assay type: cell-based; details: concentrations below 200 µM, 24 h, CCK-8, n = 3
Protocol: HepG2 cells were cultured in DMEM supplemented with penicillin at a concentration of 100 U/mL, streptomycin at 100 μg/mL, and fetal bovine serum at a volume ratio of 10% under conditions of 37 °C and 5% CO2. A total of 2 ×10^4 cells per well were seeded into a 96-well plate for overnight culture. The upper layer of medium was carefully aspirated, and 200 μL of different concentrations of oligopeptide solution (50 μM, 100 μM, 200 μM) prepared with cell complete medium was added to each well. Twenty-four hours later, the proliferation rate of the cells was measured according to the instructions of the CCK-8 kit, and the appropriate concentration of oligopeptide was screened out.

HepG2 cells [2] = test: Cell viability of PANa-induced HepG2 (CCK-8); assay type: cell-based; details: 100 μM peptide 4 h, then 350 µM PANa 24 h, **** p < 0.0001 vs PANa group
Protocol: A total of 2 × 10^4 cells/well were inoculated in 96-well plates for culture at 37 °C and 5% CO2. Following this period, the cells received treatment with 200 μL medium containing 100 μM LR-7, KA-8, or PG-7 for 4 h before adding 350 μM PANa to each well. After incubation for an additional 24 h, the cell proliferation rates were assessed using the CCK-8 assay protocols.

catalase (CAT) = test: Catalase (CAT) activity in HepG2; assay type: cell-based; details: 100 μM peptide 4 h, then 350 µM PANa 24 h, HepG2
Protocol: (§1) After incubation, cells were treated with 100 μM of peptides for 4 h. After removing the media, PANa was added for 24 h of incubation. The levels of catalase (CAT), superoxide dismutase (SOD), glutathione peroxidase (GSH-Px), malondialdehyde (MDA), triacylglycerol (TG), total cholesterol (TCHO), low-density lipoprotein cholesterol (LDL-C), and high-density lipoprotein cholesterol (HDL-C) in the supernatant were determined according to the kit instructions.

[3] = tested on: superoxide dismutase (SOD); test: Superoxide dismutase (SOD) activity in HepG2; assay type: cell-based; details: 100 μM peptide 4 h, then 350 µM PANa 24 h
Protocol: as §1

[4] = tested on: glutathione peroxidase (GSH-Px); test: Glutathione peroxidase (GSH-Px) activity in HepG2; assay type: cell-based; details: 100 μM peptide 4 h, then 350 µM PANa 24 h, HepG2
Protocol: as §1

malondialdehyde (MDA) = test: Malondialdehyde (MDA) level in HepG2; assay type: cell-based; details: 100 μM peptide 4 h, then 350 µM PANa 24 h, HepG2
Protocol: as §1

Nrf2 = test: Western blot Nrf2; assay type: cell-based; details: 100 μM peptide 4 h, then 350 µM PANa 24 h, HepG2, Western blot
Protocol: (§2) After treatment, cells were washed with pre-chilled PBS and lysed with ice-cold lysis buffer for 30 min. The supernatant was collected after centrifugation at 12,000× g for 10 min and stored at −80 °C. Protein concentration was determined using a BCA protein assay kit. Equal amounts of protein (20–40 µg) were subjected to 10% sodium dodecyl sulfate-polyacrylamide gel electrophoresis (SDS-PAGE) and transferred to PVDF membranes (Polyvinylidene Fluoride, Merck, Darmstadt, Germany). Non-specific binding sites were blocked with 5% bovine serum albumin (BSA) solution at room temperature for 1 h, followed by incubation with the primary antibody at 4 °C overnight. After washing with TBST (3 times, 10 min/time), the membrane was incubated with the secondary antibody at room temperature for 1 h. Following further washing with TBST (3 times, 10 min/time), antibody signals were detected using a Western blot development system. The dilution ratios for the internal reference protein, vascular endothelial injury-related proteins, and oxidative stress-related pathway proteins were prepared according to the manufacturer’s instructions.

HO-1 = test: Western blot HO-1; assay type: cell-based; details: 100 μM peptide 4 h, then 350 µM PANa 24 h, HepG2, Western blot
Protocol: as §2

NQO1 = test: Western blot NQO1; assay type: cell-based; details: 100 μM peptide 4 h, then 350 µM PANa 24 h, HepG2, Western blot
Protocol: as §2

triacylglycerol (TG) = test: Triacylglycerol (TG) level in HepG2; assay type: cell-based; details: 100 μM peptide 4 h, then 350 µM PANa 24 h, HepG2
Protocol: as §1

total cholesterol (TCHO) = test: Total cholesterol (TCHO) level in HepG2; assay type: cell-based; details: 100 μM peptide 4 h, then 350 µM PANa 24 h, HepG2
Protocol: as §1

[5] = tested on: low-density lipoprotein cholesterol (LDL-C); test: LDL-C level in HepG2; assay type: cell-based; details: 100 μM peptide 4 h, then 350 µM PANa 24 h, HepG2
Protocol: as §1

[6] = tested on: high-density lipoprotein cholesterol (HDL-C); test: HDL-C level in HepG2; assay type: cell-based; details: 100 μM peptide 4 h, then 350 µM PANa 24 h, HepG2
Protocol: as §1

[7] = tested on: fatty acid synthase (FASN); test: Western blot FASN; assay type: cell-based; details: 100 μM peptide 4 h, then 350 µM PANa 24 h, HepG2, Western blot
Protocol: as §2

[8] = tested on: phosphorylated ACC1 (p-ACC1); test: Western blot p-ACC1; assay type: cell-based; details: 100 μM peptide 4 h, then 350 µM PANa 24 h, HepG2, Western blot
Protocol: as §2

[9] = tested on: proteins associated with lipid metabolism; test: Western blot, proteins associated with lipid metabolism overall; assay type: cell-based; details: 100 μM peptide 4 h, then 350 µM PANa 24 h, HepG2, Western blot
Protocol: as §2

pancreatic lipase = test: Pancreatic lipase activity inhibition; assay type: biochemical; details: compared with orlistat (positive control); 4-nitrophenyl palmitate substrate, lipase 1.2 mg/mL, peptide 100 μM, Tris-HCl pH 8.0, 37 °C, absorbance 405 nm, three parallel wells
Protocol: A working substrate solution consisting of 4-nitrophenyl palmitate dissolved in sodium acetate solution (containing 1% Triton-X 100, 100 mL, 5 mM, pH 5.0) was prepared. Enzyme powder was dissolved in Tris-HCl buffer (pH 8.0, 37 °C). This mixture was incubated at 4 °C for 2 h before centrifugation at 5000 r/min for 5 min, yielding the supernatant used to prepare a pancreatic lipase solution of 1.2 mg/mL. Orlistat at a concentration of 1 mg/mL in Tris-HCl buffer (pH 8.0; 37 °C) was prepared alongside DMSO to reach a concentration of 350 μg/mL peptide solution. The peptide solution of 100 μM was prepared with Tris-HCl buffer (pH = 8.0, 37 °C). The absorbance was measured at 405 nm, and the inhibition rate was measured in parallel with three holes due to the methodology of Franco et al..

HUVECs = details: earlier work, ref [21]; cited from earlier work
Description: Harpadon nehereus, a nutrient-rich marine species indigenous to the Indo-Pacific region, remains underexploited despite its significant collagen content (18–22% wet weight). Harpadon nehereus serves as an economical source that is rich in protein and trace elements. Its proteins and derived peptides offer numerous health benefits including immune enhancement, blood pressure reduction, cardiovascular protection, and inflammation mitigation. In prior research, we successfully isolated three novel peptides LALFVPR (LR-7), KLHDEEVA (KA-8), and PSRILYG (PG-7) from the enzymatic hydrol ... || Studies have confirmed that oxidative stress and lipid metabolism disorders are significant factors in the occurrence and development of hyperlipidemia Dietary intervention is a crucial auxiliary strategy for the management of hyperlipidemia. Collagen peptides have been extensively used as a nutritional intervention in the treatment of various diseases due to their notable antioxidant, anti-inflammatory, and hypolipidemic activities. […] Anoth ...

Compound	hepatic steatosis, oxidative stress, inflammatory cell infiltration and fibrosis via Nrf2 pathway (Nrf2 pathway)	expression levels of FASN and ACC1 / lipid accumulation (FASN and ACC1)	effect on apoptosis of HepG2 cells (HepG2 cells [1])	cell viability of PANa-exposed HepG2 (HepG2 cells [2])	CAT activity, reversal of PANa-induced reduction (catalase (CAT))	SOD activity, reversal of PANa-induced reduction [3]	GSH-Px activity, reversal of PANa-induced reduction [4]	MDA level (malondialdehyde (MDA))	Nrf2 protein level (Nrf2)	HO-1 protein level (HO-1)	NQO1 protein level (NQO1)	TG, effect on PANa-induced increase (triacylglycerol (TG))	TCHO, effect on PANa-induced increase (total cholesterol (TCHO))	LDL-C, effect on PANa-induced increase [5]	HDL-C, effect on PANa-induced decrease [6]	FASN expression vs PANa group [7]	p-ACC1 level vs PANa group [8]	abnormal expression of proteins associated with lipid metabolism by PANa (FASN, ATGL, CPT1, p-AMPKα) [9]	inhibition of pancreatic lipase activity (pancreatic lipase)	effect on angiotensin II-induced dysfunctions within HUVECs (HUVECs)
COc1ccc([C@@H]2CC(=O)c3c(O)cc(O)cc3O2)cc1O [hesperetin]	reduce hepatic steatosis, alleviate oxidative stress, decrease inflammatory cell infiltration, and mitigate fibrosis through activation of the Nrf2 pathway																			
Oc1ccc2c(c1)OCO2 [sesamol (SEM), sesamol]		influence lipid accumulation by decreasing the expression levels of FASN and ACC1																		
KLHDEEVA [KA-8, peptide from Harpadon nehereus bone collagen enzymatic hydrolysates]			no effect on the apoptosis of HepG2 cells	notably enhanced the cell viability	effectively reversed the reduction	effectively reversed the reduction	effectively reversed the reduction	significantly decreased the MDA levels	significant increases in the levels	significant increases in the levels	significant increases in the levels	notably reversed the PANa-induced increases	notably reversed the PANa-induced increases	notably reversed the PANa-induced increases	notably reversed	FASN expression decreased	p-ACC1 levels increased significantly	significantly reversed	comparable results to orlistat	
PSRILYG [PG-7, peptide from Harpadon nehereus bone collagen enzymatic hydrolysates]			no effect on the apoptosis of HepG2 cells	notably enhanced the cell viability	effectively reversed the reduction	effectively reversed the reduction	effectively reversed the reduction	significantly decreased the MDA levels	significant increases in the levels	significant increases in the levels	significant increases in the levels	notably reversed the PANa-induced increases	notably reversed the PANa-induced increases	notably reversed the PANa-induced increases	notably reversed	FASN expression decreased	p-ACC1 levels increased significantly	significantly reversed	less effective than orlistat	improve angiotensin II-induced dysfunctions within HUVECs
